Legend:
BK polyomavirus [1] = assay: Antiviral activity against BKV Gardner ATCC VR837 infected in human WI38 cells assessed as reduction in viral DNA level preincubated for 2 hrs before viral infection measured after 7 days by real time PCR assay; type: functional, organism-based, Betapolyomavirus hominis, WI-38
[2] = Cytotoxicity against human WI38 cells assessed as reduction in cellular DNA level preincubated for 2 hrs before viral infection measured after 7 days by real time PCR assay; type: cell-based, WI-38; conditions: for CC50 at 168 h: WI38 cells
[3] = Selectivity index, ratio of CC50 for human WI38 cells preincubated for 2 hrs before viral infection measured after 7 days by real time PCR assay to EC50 for BKV Gardner ATCC VR837; type: toxicity, cell-based, WI-38; conditions: for selectivity ratio at 168 h: WI38 cells, read-out: Ratio CC50/EC50
[4] = Cytotoxicity against human WI38 cells by conventional neutral red assay; type: cell-based, WI-38
[5] = Selectivity index, ratio of CC50 for human WI38 cells by conventional neutral red assay to EC50 for BKV Gardner ATCC VR837; type: toxicity, cell-based, WI-38; conditions: read-out: Ratio CC50/EC50
BK polyomavirus [6] = assay: Antiviral activity against BKV Gardner ATCC VR837 infected in human WI38 cells assessed as reduction in viral DNA level after 7 days by real time PCR assay; type: functional, organism-based; conditions: Betapolyomavirus hominis, WI-38, 168 h
[7] = Cytotoxicity against human WI38 cells assessed as reduction in cellular DNA level after 7 days by real time PCR assay; type: cell-based, WI-38
[8] = Selectivity index, ratio of CC50 for human WI38 cells after 7 days by real time PCR assay to EC50 for BKV Gardner ATCC VR837; type: toxicity, cell-based, WI-38; conditions: read-out: Ratio CC50/EC50
[9] = Cytotoxicity against human WI38 cells assessed as reduction in cellular DNA level at 6.25 uM preincubated for 2 hrs before viral infection measured after 7 days by real time PCR assay; type: cell-based; conditions: wi-38, 168 h
[10] = Betapolyomavirus hominis, Gardner, WI-38

Compound	EC50 (BK polyomavirus [1]; [10]) [µM]	CC50 at 168 h [2] [µM]	selectivity ratio at 168 h [3]	also measured
Cc1nc2n(c(=O)c1CCN1CCC(c3noc4cc(F)ccc34)CC1)CCCC2 [RISPERIDONE]	> 25	25	–	–
NYSTATIN	–	–	–	EC50 (BK polyomavirus [1]; wi-38): 9.81 µM; CC50 ([2]; wi-38, 168 h): 48.6 µM; Ratio CC50/EC50 ([3]; wi-38, 168 h): 5.13
COc1cc2c(c(OC)c1OC)-c1ccc(OC)c(=O)cc1[C@@H](NC(C)=O)CC2 [COLCHICINE]	0.022	0.0476	3.63	–
COC(=O)[C@H]1O[C@@H](OC(C)=O)[C@H](OC(C)=O)[C@@H](OC(C)=O)[C@@H]1OC(C)=O	> 100	> 100	–	–
O=C1OC([C@@H](O)CO)[C@H](O)[C@@H]1O (some centres undefined)	> 100	> 100	–	–
O=C1Cc2cc(CCN3CCN(c4nsc5ccccc45)CC3)c(Cl)cc2N1 [ZIPRASIDONE]	> 100	> 100	–	–
CN(C)CCCN1c2ccccc2Sc2ccc(Cl)cc21 [CHLORPROMAZINE]	7.6	10.3	1.98	–
Cc1cc2c(s1)Nc1ccccc1N=C2N1CCN(C)CC1 [OLANZAPINE]	> 100	> 100	–	–
CCCCCCCCO[C@@H]1O[C@H](CO)[C@@H](O)[C@H](O)[C@H]1O	> 100	> 100	–	–
O=C(O)[C@H]1OC(O)[C@H](O)[C@@H](O)[C@@H]1O (some centres undefined)	> 100	> 100	–	–
CCCCCCCCCO[C@@H]1O[C@H](CO)[C@@H](O)[C@H](O)[C@H]1O	6.35	78.3	16	CC50 [4]: 126 µM; selectivity ratio [5]: 30.5; EC50 (BK polyomavirus [6]): 98.3 µM; CC50 at 168 h [7]: 114 µM; selectivity ratio at 168 h [8]: 1.25
C[C@@H]1[C@H](O)[C@@H](C)/C=C/C=C/C=C/C=C/C=C/C=C/C=C/[C@H](O[C@@H]2O[C@H](C)[C@@H](O)[C@H](N)[C@@H]2O)C[C@@H]2O[C@](O)(C[C@@H](O)C[C@@H](O)[C@H](O)CC[C@@H](O)C[C@@H](O)CC(=O)O[C@H]1C)C[C@H](O)[C@H]2C(=O)O [AMPHOTERICIN B]	1.67	4.99	2.99	Activity [9]: Active
CC(=O)OC[C@H]1OC[C@H](OC(C)=O)[C@@H](OC(C)=O)[C@H]1OC(C)=O	> 100	> 100	–	–
CN1CCN(C2=Nc3cc(Cl)ccc3Nc3ccccc32)CC1 [CLOZAPINE]	23.3	40	4.9	–
CCN(CC)CCCC(C)Nc1ccnc2cc(Cl)ccc12 (centres undefined) [CHLOROQUINE]	1.7	8.5	5.32	–
CC(=O)OC[C@H]1OC[C@H](OC(C)=O)[C@@H](OC(C)=O)[C@@H]1OC(C)=O	> 100	> 100	–	–
CO[C@H]1O[C@H](CO)[C@@H](O)[C@H](O)[C@@H]1O	> 100	> 100	–	–
COC(=O)[C@H]1O[C@@H](O)[C@H](O)[C@@H](O)[C@H]1O	> 100	> 100	–	–

Reference: ChEMBL document CHEMBL1137669, “BK Virus replication in vitro: limited effect of drugs interfering with viral uptake and intracellular transport” (Antimicrob Agents Chemother, 2007)
